Laboratory results from ChEMBL document CHEMBL5154845, “Dual-acting antitumor agents targeting the A2A adenosine receptor and histone deacetylases: Design and synthesis of 4-(furan-2-yl)-1H-pyrazolo[3,4-d]pyrimidin-6-amine derivatives” (Eur J Med Chem, 2022).

Tests used:
Histone deacetylase 1 = Histone deacetylase 1 (Homo sapiens, UniProt Q13547); assay: Inhibition of HDAC1 (unknown origin) using trypsin and LGK(Ac)-AMC as substrates incubated for 1 hr and measured by fluorescence assay
Adenosine receptor A2a = Adenosine receptor A2a (Homo sapiens, UniProt P29274); assay: Displacement of [3H][…] from human A2AAR incubated for 60 mins by scintillation counter analysis
CT26 = assay: Antiproliferative activity against mouse CT26 cells after 72 hrs by CCK-8 assay; assay type: functional
[1] = Cmax in male ICR mouse at 20 mg/kg, po measured up to 24 hrs by LC-MS/MS analysis; assay type: ADME, organism-based; set-up: time < 24 hrs, dose 20 mg/kg, route po; conditions: in vivo
[2] = Elimination rate constant in male ICR mouse at 20 mg/kg, po measured up to 24 hrs by LC-MS/MS analysis; assay type: ADME, organism-based; conditions: in vivo
[3] = AUC (0 to t) in male ICR mouse at 20 mg/kg, po measured up to 24 hrs by LC-MS/MS analysis; assay type: ADME, organism-based; set-up: time < 24 hrs, dose 20 mg/kg, route po; conditions: in vivo
[4] = Mean residence time in male ICR mouse at 20 mg/kg, po measured up to 24 hrs by LC-MS/MS analysis; assay type: ADME, organism-based; conditions: in vivo
MC-38 = assay: Antiproliferative activity against mouse MC38 cells after 72 hrs by CCK-8 assay; assay type: functional
[5] = Tmax in male ICR mouse at 20 mg/kg, po measured up to 24 hrs by LC-MS/MS analysis; assay type: ADME, organism-based; conditions: in vivo
[6] = Half-life in male ICR mouse at 20 mg/kg, po measured up to 24 hrs by LC-MS/MS analysis; assay type: ADME, organism-based; conditions: in vivo
Adenosine receptor A1 = molecular target: T1, Adenosine receptor A1 (Homo sapiens, UniProt P30542); assay: Displacement of [3H]DPCPX from human A1AR incubated for 60 mins by scintillation counter analysis
T1 sequence (P30542 whole entry): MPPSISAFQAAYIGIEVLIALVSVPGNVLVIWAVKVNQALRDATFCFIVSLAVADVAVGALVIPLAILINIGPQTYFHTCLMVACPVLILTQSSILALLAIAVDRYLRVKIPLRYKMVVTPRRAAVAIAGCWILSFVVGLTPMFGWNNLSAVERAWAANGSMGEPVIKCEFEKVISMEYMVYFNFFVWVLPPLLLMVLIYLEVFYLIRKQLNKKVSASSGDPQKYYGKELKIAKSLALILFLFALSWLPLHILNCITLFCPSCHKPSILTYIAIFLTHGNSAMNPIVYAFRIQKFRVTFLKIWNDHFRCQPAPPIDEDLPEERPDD

Adenosine receptor A3 = molecular target: T2, Adenosine receptor A3 (Homo sapiens, UniProt P0DMS8); assay: Displacement of [3H]HEMADO from human A3AR incubated for 60 mins by scintillation counter analysis
T2 sequence (P0DMS8 whole entry): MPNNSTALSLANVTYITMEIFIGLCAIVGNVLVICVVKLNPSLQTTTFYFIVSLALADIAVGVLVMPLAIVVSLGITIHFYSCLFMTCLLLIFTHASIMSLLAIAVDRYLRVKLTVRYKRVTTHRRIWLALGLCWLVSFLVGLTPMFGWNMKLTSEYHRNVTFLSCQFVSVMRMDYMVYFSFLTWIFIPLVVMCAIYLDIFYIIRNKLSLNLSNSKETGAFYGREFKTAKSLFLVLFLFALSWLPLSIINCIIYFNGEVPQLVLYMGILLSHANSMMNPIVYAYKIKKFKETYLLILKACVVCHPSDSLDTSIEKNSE

Adenosine receptor A2b = molecular target: T3, Adenosine receptor A2b (Homo sapiens, UniProt P29275); assay: Displacement of [3H]DPCPX from human A2BAR incubated for 60 mins by scintillation counter analysis
T3 sequence (P29275 whole entry): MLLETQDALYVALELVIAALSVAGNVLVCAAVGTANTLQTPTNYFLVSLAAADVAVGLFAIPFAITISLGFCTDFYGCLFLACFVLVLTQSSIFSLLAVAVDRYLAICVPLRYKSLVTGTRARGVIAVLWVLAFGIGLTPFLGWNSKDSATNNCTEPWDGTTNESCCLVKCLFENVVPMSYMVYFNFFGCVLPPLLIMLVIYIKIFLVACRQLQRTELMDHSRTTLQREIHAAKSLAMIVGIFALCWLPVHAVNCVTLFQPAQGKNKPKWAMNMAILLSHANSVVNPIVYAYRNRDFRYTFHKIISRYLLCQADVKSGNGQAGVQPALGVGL

Chain of Adenosine receptor A2a (P29274 whole entry): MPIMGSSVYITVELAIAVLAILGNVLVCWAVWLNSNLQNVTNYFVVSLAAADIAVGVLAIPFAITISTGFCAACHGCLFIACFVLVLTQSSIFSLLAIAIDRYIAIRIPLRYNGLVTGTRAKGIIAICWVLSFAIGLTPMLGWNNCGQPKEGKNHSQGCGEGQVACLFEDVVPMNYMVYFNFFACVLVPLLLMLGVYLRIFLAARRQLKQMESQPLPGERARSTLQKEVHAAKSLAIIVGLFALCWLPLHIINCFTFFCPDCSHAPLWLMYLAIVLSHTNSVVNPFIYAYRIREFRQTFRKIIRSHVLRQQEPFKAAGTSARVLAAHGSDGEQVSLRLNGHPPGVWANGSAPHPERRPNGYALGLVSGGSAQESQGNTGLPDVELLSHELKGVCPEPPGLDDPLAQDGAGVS
Chain of Histone deacetylase 1 (Q13547 whole entry): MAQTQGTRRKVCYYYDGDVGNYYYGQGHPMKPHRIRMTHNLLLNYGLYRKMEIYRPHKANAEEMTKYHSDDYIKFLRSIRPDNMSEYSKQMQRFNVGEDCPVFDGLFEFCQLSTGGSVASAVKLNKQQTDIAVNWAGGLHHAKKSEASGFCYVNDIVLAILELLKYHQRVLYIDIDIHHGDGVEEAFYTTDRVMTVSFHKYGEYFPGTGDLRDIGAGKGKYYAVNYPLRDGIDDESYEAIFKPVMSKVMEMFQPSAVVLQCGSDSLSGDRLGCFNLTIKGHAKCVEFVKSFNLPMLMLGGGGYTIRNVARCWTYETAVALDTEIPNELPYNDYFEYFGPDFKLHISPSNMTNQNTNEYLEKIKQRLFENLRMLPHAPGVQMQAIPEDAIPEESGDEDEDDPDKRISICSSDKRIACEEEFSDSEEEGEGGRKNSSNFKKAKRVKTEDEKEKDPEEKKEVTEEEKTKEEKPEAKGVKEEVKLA

SMILES	IC50 (Histone deacetylase 1)	Ki (Adenosine receptor A2a)	GI50 (CT26)	GI50 (MC-38)	also measured
Cc1ccc(-c2nc(N)nc3c2cnn3CCCCC(=O)NO)o1	228 nM	1830 nM	–	–	–
Nc1nc(-c2ccco2)c2cnn(CCc3ccc(C(=O)NO)cc3)c2n1	126 nM	436 nM	–	–	–
Nc1nc(-c2ccco2)c2cnn(Cc3ccc(C(=O)NO)cc3)c2n1	12.8 nM	863 nM	–	–	–
Cc1ccc(-c2nc(N)nc3c2cnn3CCCCCCC(=O)NO)o1	2.2 nM	334 nM	–	–	–
Nc1nc(-c2ccco2)c2cnn(Cc3cccc(/C=C/C(=O)NO)c3)c2n1	8.4 nM	130 nM	2.32 µM	1.91 µM	Cmax [1]: 122 ng/mL; k el at 24 h [2]: 2.69e-05 s⁻¹; AUC(0-t) at 24 h [3]: 182 ng·h/mL; MRT [4]: 9.54 h; Tmax [5]: 15 min; half-life [6]: 452 min
Cc1ccc(-c2nc(N)nc3c2cnn3CCCOc2ccc(C(=O)Nc3ccccc3N)cc2)o1	226 nM	107 nM	–	–	–
Cc1ccc(-c2nc(N)nc3c2cnn3Cc2cccc(OCCCCCCC(=O)NO)c2)o1	42.5 nM	52.8 nM	13.2 µM	11.3 µM	–
Nc1nc(-c2ccco2)c2cnn(Cc3cccc(OCCCCC(=O)NO)c3)c2n1	151 nM	7.3 nM	–	–	–
Cc1ccc(-c2nc(N)nc3c2cnn3Cc2ccc(C(=O)Nc3ccccc3N)cc2)o1	45 nM	> 10000 nM	–	–	–
Cc1ccc(-c2nc(N)nc3c2cnn3CCCCCCCC(=O)NO)o1	7.2 nM	585 nM	–	–	–
Cc1ccc(-c2nc(N)nc3c2cnn3CCCCCC(=O)NO)o1	7.3 nM	617 nM	–	–	–
Nc1nc(-c2ccco2)c2cnn(Cc3cccc(OCCCCC(=O)NO)n3)c2n1	420 nM	50.7 nM	–	–	–
Nc1nc(-c2ccco2)c2cnn(CCCCCC(=O)NO)c2n1	9.3 nM	777 nM	–	–	–
Cc1ccc(-c2nc(N)nc3c2cnn3Cc2ccc(N)c(OCCCCCCC(=O)NO)c2)o1	45 nM	74.3 nM	19.6 µM	26.7 µM	–
O=C(CCCCCCC(=O)Nc1ccccc1)NO [VORINOSTAT]	–	–	2.35 µM	2.74 µM	–
Nc1nc(-c2ccco2)c2cnn(CCCCCCC(=O)NO)c2n1	2.4 nM	301 nM	33 µM	0.35 µM	–
Cc1ccc(-c2nc(N)nc3c2cnn3CCc2ccc(C(=O)NO)cc2)o1	73.5 nM	295 nM	–	–	–
Cc1ccc(-c2nc(N)nc3c2cnn3Cc2cccc(OCCCCC(=O)NO)c2)o1	206 nM	25.9 nM	–	–	–
Nc1nc(-c2ccco2)c2cnn(Cc3ccc(/C=C/C(=O)Nc4ccccc4N)cc3)c2n1	116 nM	> 10000 nM	–	–	–
Nc1nc(-c2ccco2)c2cnn(CCCc3ccc(C(=O)NO)cc3)c2n1	64.5 nM	863 nM	–	–	–
Cc1ccc(-c2nc(N)nc3c2cnn3Cc2cccc(OCCCCC(=O)NO)n2)o1	573 nM	72 nM	–	–	–

SMILES	IC50 (Histone deacetylase 1)	Ki (Adenosine receptor A2a)	GI50 (CT26)	GI50 (MC-38)	also measured
Nc1nc(-c2ccco2)c2cnn(Cc3cccc(OCCCCCC(=O)NO)n3)c2n1	192 nM	68.3 nM	–	–	–
Nc1nc(-c2ccco2)c2cnn(Cc3ccc(C(=O)Nc4ccccc4N)cc3)c2n1	17.5 nM	1720 nM	–	–	–
Cc1ccc(-c2nc(N)nc3c2cnn3Cc2cccc(/C=C/C(=O)Nc3ccccc3N)c2)o1	2530 nM	25 nM	–	–	–
Cc1ccc(-c2nc(N)nc3c2cnn3Cc2cccc(OCCCCCC(=O)NO)n2)o1	210 nM	72.8 nM	–	–	–
Cc1ccc(-c2nc(N)nc3c2cnn3CCc2ccc(C(=O)Nc3ccccc3N)cc2)o1	126 nM	125 nM	9.13 µM	7.97 µM	–
Nc1nc(-c2ccco2)c2cnn(Cc3ccc(/C=C/C(=O)NO)cc3)c2n1	7.1 nM	3590 nM	–	–	–
Cc1ccc(-c2nc(N)nc3c2cnn3Cc2ccc(C(=O)NO)cc2)o1	14 nM	2540 nM	–	–	–
Nc1nc(-c2ccco2)c2cnn(Cc3cccc(/C=C/C(=O)Nc4ccccc4N)c3)c2n1	1180 nM	35.8 nM	–	–	–
Cc1ccc(-c2nc(N)nc3c2cnn3Cc2cccc(OCCCCCCC(=O)NO)n2)o1	29.5 nM	159 nM	7.68 µM	6.41 µM	–
Nc1nc(-c2ccco2)c2cnn(Cc3ccc(N)c(OCCCCCCC(=O)NO)c3)c2n1	37 nM	15 nM	22.8 µM	28.2 µM	–
Nc1nc(-c2ccco2)c2cnn(Cc3cccc(OCCCCCCC(=O)NO)n3)c2n1	23 nM	14.7 nM	5.8 µM	5.06 µM	Ki (Adenosine receptor A1): 641 nM; Cmax [1]: 608 ng/mL; k el at 24 h [2]: 0.000131 s⁻¹; AUC(0-t) at 24 h [3]: 302 ng·h/mL; MRT [4]: 1.16 h; Ki (Adenosine receptor A3): > 10 µM; Tmax [5]: 15 min; Ki (Adenosine receptor A2b): 2500 nM; half-life [6]: 88.8 min
Nc1nc(-c2ccco2)c2cnn(Cc3cccc(OCCCCCC(=O)NO)c3)c2n1	86 nM	10.9 nM	9.99 µM	9.82 µM	–
Nc1nc(-c2ccco2)c2cnn(CCCCC(=O)NO)c2n1	394 nM	1560 nM	–	–	–
Nc1nc(-c2ccco2)c2cnn(CCCc3ccc(C(=O)Nc4ccccc4N)cc3)c2n1	186 nM	140 nM	7.56 µM	6.96 µM	–
Cc1ccc(-c2nc(N)nc3c2cnn3Cc2cccc(OCCCCCC(=O)NO)c2)o1	95 nM	12.3 nM	18.9 µM	23.2 µM	–
Nc1nc(-c2ccco2)c2cnn(CCCOc3ccc(C(=O)Nc4ccccc4N)cc3)c2n1	190 nM	147 nM	> 30 µM	> 30 µM	–
Nc1ccccc1NC(=O)c1ccc(CNc2nccc(-c3cccnc3)n2)cc1 [MOCETINOSTAT]	–	–	1.77 µM	1.64 µM	–
Nc1nc(-c2ccco2)c2cnn(CCCCCCCC(=O)NO)c2n1	9.3 nM	276 nM	–	–	–
Cc1ccc(-c2nc(N)nc3c2cnn3Cc2cccc(/C=C/C(=O)NO)c2)o1	14.5 nM	378 nM	–	–	–
Nc1nc(-c2ccco2)c2cnn(CCOc3ccc(C(=O)Nc4ccccc4N)cc3)c2n1	105 nM	974 nM	–	–	–
Nc1nc(-c2ccco2)c2cnn(CCOc3ccc(C(=O)NO)cc3)c2n1	11.1 nM	> 10000 nM	–	–	–
